“Also recorded” adds a separate entry of the source.
Tested on: MPG2
Assay: Protein-DNA DAPPL binding assay on a protein microarray of two human TF proteins and BSA, ligation products detected by PCR
Settings: array of two human TF proteins and BSA; Sanger sequencing, six of six clones as expected
From the text: A DAPPL approach was applied to establish a comprehensive screen for protein-DNA interactions. As illustrated in FIG. 19A and FIG. […] Meanwhile, a pool of DNA polynucleotides was synthesized that each contains eight random nucleotides with a CpG in the middle and two fixed sequences on both sides. After a double-stranded DNA pool was made with a Klenow reaction, bacterial enzyme SssI is used to methylate the CpG, followed by treatment with a T4 DNA polymerase to generate a 5′-overhang. This pool of 65,536 species was then incubated on the TF array, washed, and the captured DNA fragments were ligated to the address polynucleotides. In each ligated sequence, a mCpG containing 8-mer sequence is now connected to an address oligo representing the TF protein that has captured this 8-mer in the binding assay. Therefore, it is an “all-to-all” screening approach. […] The ligated products were then recovered from the slide and PCR-amplified. […] Bioinformatics analyses were performed to determine whether there was any enrichment of consensus motifs for each TF protein.
After cloning the PCR fragments, Sanger sequencing was performed to determine the PCR-amplified sequences. Six of six sequenced clones gave the expected sequences from the ligation on the array.

Substance: M62: methylated DNA motif M62 (SEQ ID NO: 10) used as probe on the TF protein microarray (DNA ATATGCATCG; methylated DNA motif, methylated positions not given here)
- capture of the methylated DNA motif by the TF spot (recovery of ligation products by PCR): captures; also recorded: successfully recovered using a PCR reaction only from the expected TF spot
